Values joined by “and” are separate entries in the source; they are usually repeats but may differ in a detail not shown here. Identical values can stand only once. “Also recorded” adds a separate entry of the source. Like-named read-outs stand apart in the source and are kept apart here. Peptide text beside a SMILES is read from it. * marks the point of attachment. Cbz = O=C(OCc1ccccc1)*
Tests used:
K562 cells [1] = test: K562 cell growth after drug washout (CCK-8); type: cell-based, human; conditions: 1 nM 48 h, drug-free medium 1 to 4 days
Method: Figure 2 Arg-PEG (1–4)-Dasa induced the degradation of BCR–ABL through the proteasome.A, K562 cells were incubated with Arg-PEG (1–4)-Dasa bearing different numbers of PEG linker at indicated concentration for 48 h. The expression of various proteins indicated was determined by immunoblotting. B, K562 cell viability was examined using CCK-8 assays after the treatment with Arg-PEG (1–4)-Dasa for 48 h at various concentrations (0, 0.01, 0.1, 0.25, 0.5, 0.75, 1, and 2.5 nM). C, immunoblot analysis of the indicated proteins in K562 cells treated with various compounds at 1 nM for 48 h. D, immunoblot analysis of the proteins indicated in K562 cells treated with gradually increasing doses of Arg-PEG1-Dasa for 48 h. E, immunoblot analysis of the indicated proteins in K562 cells treated with DMSO, Arg-PEG1-Dasa, Dasa, or NH2-PEG1-Dasa at 1 nM for 48 h. F, immunoblot analysis of the indicated proteins in K562 cells pretreated with Dasa or NH2-PEG1-Dasa (1 nM) for 2 h followed by Arg-PEG1-Dasa treatment at 1 nM for 48 h. G and H, K562 cells were treated with indicated compounds at 1 nM for 2 days, following washout and incubation compound-free medium. G, cell growth was detected using CCK-8 assays at the indicated times. H, the protein level indicated was tested with immunoblot. […]

K562 xenograft = test: K562 CML xenograft mouse model, tumor growth; type: in vivo; conditions: nude mice, 10 mg/kg i.p. every other day, 10 doses, day 27
Method: (§1) To evaluate the effects of the N-end rule–based PROTAC on tumor growth in vivo, we set up a K562 CML xenograft mouse model. K562 cells were subcutaneously implanted into the right flank of female nude mice. When the tumors reached a palpable volume of about 50 to 80 mm^3 at day 7, the mice bearing K562 tumors were then divided into two groups randomly and administered every other day with either vehicle or Arg-PEG1-Dasa (10 mg/kg) for total 10 doses by intraperitoneal injection. Tumor volumes were measured at indicated time with calipers. When sacrificed on day 27, the tumors were harvested and photographed (Fig. 6A). The amount of BCR–ABL protein in vivo upon Arg-PEG1-Dasa treatment was examined in K562 xenograft mouse model using the immunohistochemistry (Fig. 6B) and immunoblot (Fig. 6C). […]. Further studies are needed to optimize PROTAC or administration strategy to achieve better therapeutic effects.
(§2) K562 cells (1 × 10^7 cells/200 μl) were subcutaneously injected into the right flank of 4-week-old female nude mice. […]. The drugs were subsequently administered by i.p. injection every other day with either vehicle, Arg-PEG1-Dasa, or Dasa (10 mg/kg) for total 10 doses. The growth of tumors in mice was measured with a Vernier caliper. The tumor volume was determined using the formula volume = 0.5 × (length) × (width)^2. […]

[2] = Body weight of mice in K562 xenograft model; type: in vivo
Method: as §1, §2

pSTAT5 = test: STAT5 phosphorylation after drug washout (immunoblot); type: cell-based, human; conditions: K562 cells, 1 nM 2 days, compound-free medium
Method: For controls, we also examined the activity of the PROTAC without the single amino acid (an intermediate product NH2-PEG1-Dasa, Fig. S1A) or Dasa alone on cell viability of K562 cells for 48 h. […] Moreover, the ability of Arg-PEG1-Dasa–mediated degradation of BCR–ABL was mitigated by cotreatment with excess Dasa or NH2-PEG1-Dasa in the competition assay (Fig. 2F). One advantage of PROTACs versus traditional inhibitors is that only the transient drug–target interaction is needed for its target suppression.
Cells were collected and lysed in radioimmunoprecipitation assay buffer (50 mM Tris–HCl [pH 8.0], 1% NP-40, 150 mM NaCl, 0.1% SDS, 0.5% sodium deoxycholate, and 1× complete protease inhibitor cocktail) on ice for 20 min and centrifuged at 15,000 rpm for 10 min at 4 °C to collect the supernatant. After protein concentrations were measured by the bicinchoninic acid protein assay kit (Thermo Scientific), samples with equal amounts of proteins were mixed with loading buffer and denatured by boiling. Protein lysates were resolved by SDS-PAGE and transferred to polyvinylidene fluoride membranes. Then, the membranes were blocked in 5% nonfat milk for 1 h at room temperature, incubated with a primary antibody overnight at 4 °C, and then incubated with horseradish peroxidase–conjugated secondary antibodies for 1 h at room temperature. […]

K562 cells [3] = test: K562 cell viability, CCK-8 assay; type: cell-based; conditions: Homo sapiens, 48 h, read-out: IC50 (half maximal inhibitory concentration), K562 proliferation
Method: K562 cells (5 × 10^3 cells per well) were grown in 96-well plates with 100 μl medium. After the treatment with the PROTACs at various concentrations (0, 0.01, 0.1, 0.25, 0.5, 0.75, 1, and 2.5 nM) for 48 h, CCK-8 solution was added to each well and incubated for 2 h at 37 °C, and the number of viable cells was determined by measuring the absorbance of the converted dye at a 450 nm wavelength, according to the manufacturer’s instructions (Yeasen). Each experiment was performed at least three times independently.

BCR–ABL [4] = target: T1, BCR–ABL (Homo sapiens, UniProt P00519+P11274); test: BCR–ABL degradation in K562 cells (immunoblot); type: cell-based; parameters: assessed in human CML K562 cells bearing BCR–ABL; host or cells: K562; conditions: for time at which BCR–ABL reduction appears: 1 nM; for DC50: immunoblot, read-out: DC50 (drug concentration that degrades 50% protein)
Method: (§3) The ability of Arg-PEGn-Dasa PROTACs to induce BCR–ABL degradation was assessed in human CML K562 cells bearing BCR–ABL. […] We next evaluated the impact of Arg-PEGn-Dasa on cell proliferation in K562 cells using Cell Counting Kit-8 (CCK-8) assay.
(§4) Cells were collected and lysed in radioimmunoprecipitation assay buffer (50 mM Tris–HCl [pH 8.0], 1% NP-40, 150 mM NaCl, 0.1% SDS, 0.5% sodium deoxycholate, and 1× complete protease inhibitor cocktail) on ice for 20 min and centrifuged at 15,000 rpm for 10 min at 4 °C to collect the supernatant. After protein concentrations were measured by the bicinchoninic acid protein assay kit (Thermo Scientific), samples with equal amounts of proteins were mixed with loading buffer and denatured by boiling. Protein lysates were resolved by SDS-PAGE and transferred to polyvinylidene fluoride membranes. Then, the membranes were blocked in 5% nonfat milk for 1 h at room temperature, incubated with a primary antibody overnight at 4 °C, and then incubated with horseradish peroxidase–conjugated secondary antibodies for 1 h at room temperature. Subsequently, the membranes were probed with ECL reagent (Millipore), and proteins were visualized by a Tanon-5200 Automatic Chemiluminescence Imaging Analysis System (Tanon).

BCR–ABL [5] = target: T2, BCR–ABL (Homo sapiens, UniProt P00519); test: BCR–ABL degradation in K562 cells (immunoblot); type: cell-based; conditions: 5 nM, 48 h, read-out: DMax (maximum degradation percentage in comparison with control) at 5 nM
T2 construct: assessed in human CML K562 cells bearing BCR–ABL; host or cells: K562
Method: as §3, §4

BCR–ABL [6] = target: T1, BCR–ABL; test: BCR–ABL protein in K562 xenograft tumors (immunohistochemistry, immunoblot); conditions: nude mice, 10 mg/kg i.p. every other day, 10 doses, IHC and immunoblot
Method: To evaluate the effects of the N-end rule–based PROTAC on tumor growth in vivo, we set up a K562 CML xenograft mouse model. K562 cells were subcutaneously implanted into the right flank of female nude mice. […] Tumor volumes were measured at indicated time with calipers. When sacrificed on day 27, the tumors were harvested and photographed (Fig. 6A).
Cells were collected and lysed in radioimmunoprecipitation assay buffer (50 mM Tris–HCl [pH 8.0], 1% NP-40, 150 mM NaCl, 0.1% SDS, 0.5% sodium deoxycholate, and 1× complete protease inhibitor cocktail) on ice for 20 min and centrifuged at 15,000 rpm for 10 min at 4 °C to collect the supernatant. After protein concentrations were measured by the bicinchoninic acid protein assay kit (Thermo Scientific), samples with equal amounts of proteins were mixed with loading buffer and denatured by boiling. Protein lysates were resolved by SDS-PAGE and transferred to polyvinylidene fluoride membranes. Then, the membranes were blocked in 5% nonfat milk for 1 h at room temperature, incubated with a primary antibody overnight at 4 °C, and then incubated with horseradish peroxidase–conjugated secondary antibodies for 1 h at room temperature. Subsequently, the membranes were probed with ECL reagent (Millipore), and proteins were visualized by a Tanon-5200 Automatic Chemiluminescence Imaging Analysis System (Tanon). […]

[7] = test system: glutathione-S-transferase-BCR–ABL; test: Ubiquitination assay of GST-BCR–ABL in HEK293T cells (denaturing IP); type: cell-based, human; conditions: HEK293T cells coexpressing GST-BCR–ABL and myc-Ub, 48 h
Method: To determine the degradation pathway of BCR–ABL induced by PROTAC, we added lysosome acidification inhibitor chloroquine or proteasome inhibitor MG132 into Arg-PEG1-Dasa–treated K562 cells. […] To ascertain that Arg-PEG1-Dasa induced BCR–ABL turnover, we monitored the degradation kinetics of BCR–ABL with or without the PROTAC treatment. K562 cells were treated with cycloheximide to block protein synthesis and sampled at various time points for BCR–ABL levels. […] To further evaluate the involvement of the proteasome in PROTAC-induced degradation, we also added the proteasome inhibitor MG132 in the reaction. […] We next sought to investigate the Arg-PEG1-Dasa–induced ubiquitination of BCR–ABL.
Ubiquitination of BCR–ABL was detected using denatured immunoprecipitation. Cells were lysed in SDS-denaturing buffer (50 mM Tris–HCl [pH 7.4], 150 mM NaCl, 1% NP-40, 1% SDS, and 0.5% sodium deoxycholate) and boiled for 10 min. Cell lysates were then diluted 10-fold in native lysis buffer (50 mM Tris–HCl [pH 7.4], 150 mM NaCl, 1% NP-40, and 0.5% sodium deoxycholate). After centrifugation at 15,000 rpm for 10 min, the supernatants were immunoprecipitated using glutathione-Sepharose 4B beads (GE Healthcare) and incubated for 2 h at 4 °C. Beads were then washed five times using the native lysis buffer. […]

T1 sequence (P11274+P00519 fused): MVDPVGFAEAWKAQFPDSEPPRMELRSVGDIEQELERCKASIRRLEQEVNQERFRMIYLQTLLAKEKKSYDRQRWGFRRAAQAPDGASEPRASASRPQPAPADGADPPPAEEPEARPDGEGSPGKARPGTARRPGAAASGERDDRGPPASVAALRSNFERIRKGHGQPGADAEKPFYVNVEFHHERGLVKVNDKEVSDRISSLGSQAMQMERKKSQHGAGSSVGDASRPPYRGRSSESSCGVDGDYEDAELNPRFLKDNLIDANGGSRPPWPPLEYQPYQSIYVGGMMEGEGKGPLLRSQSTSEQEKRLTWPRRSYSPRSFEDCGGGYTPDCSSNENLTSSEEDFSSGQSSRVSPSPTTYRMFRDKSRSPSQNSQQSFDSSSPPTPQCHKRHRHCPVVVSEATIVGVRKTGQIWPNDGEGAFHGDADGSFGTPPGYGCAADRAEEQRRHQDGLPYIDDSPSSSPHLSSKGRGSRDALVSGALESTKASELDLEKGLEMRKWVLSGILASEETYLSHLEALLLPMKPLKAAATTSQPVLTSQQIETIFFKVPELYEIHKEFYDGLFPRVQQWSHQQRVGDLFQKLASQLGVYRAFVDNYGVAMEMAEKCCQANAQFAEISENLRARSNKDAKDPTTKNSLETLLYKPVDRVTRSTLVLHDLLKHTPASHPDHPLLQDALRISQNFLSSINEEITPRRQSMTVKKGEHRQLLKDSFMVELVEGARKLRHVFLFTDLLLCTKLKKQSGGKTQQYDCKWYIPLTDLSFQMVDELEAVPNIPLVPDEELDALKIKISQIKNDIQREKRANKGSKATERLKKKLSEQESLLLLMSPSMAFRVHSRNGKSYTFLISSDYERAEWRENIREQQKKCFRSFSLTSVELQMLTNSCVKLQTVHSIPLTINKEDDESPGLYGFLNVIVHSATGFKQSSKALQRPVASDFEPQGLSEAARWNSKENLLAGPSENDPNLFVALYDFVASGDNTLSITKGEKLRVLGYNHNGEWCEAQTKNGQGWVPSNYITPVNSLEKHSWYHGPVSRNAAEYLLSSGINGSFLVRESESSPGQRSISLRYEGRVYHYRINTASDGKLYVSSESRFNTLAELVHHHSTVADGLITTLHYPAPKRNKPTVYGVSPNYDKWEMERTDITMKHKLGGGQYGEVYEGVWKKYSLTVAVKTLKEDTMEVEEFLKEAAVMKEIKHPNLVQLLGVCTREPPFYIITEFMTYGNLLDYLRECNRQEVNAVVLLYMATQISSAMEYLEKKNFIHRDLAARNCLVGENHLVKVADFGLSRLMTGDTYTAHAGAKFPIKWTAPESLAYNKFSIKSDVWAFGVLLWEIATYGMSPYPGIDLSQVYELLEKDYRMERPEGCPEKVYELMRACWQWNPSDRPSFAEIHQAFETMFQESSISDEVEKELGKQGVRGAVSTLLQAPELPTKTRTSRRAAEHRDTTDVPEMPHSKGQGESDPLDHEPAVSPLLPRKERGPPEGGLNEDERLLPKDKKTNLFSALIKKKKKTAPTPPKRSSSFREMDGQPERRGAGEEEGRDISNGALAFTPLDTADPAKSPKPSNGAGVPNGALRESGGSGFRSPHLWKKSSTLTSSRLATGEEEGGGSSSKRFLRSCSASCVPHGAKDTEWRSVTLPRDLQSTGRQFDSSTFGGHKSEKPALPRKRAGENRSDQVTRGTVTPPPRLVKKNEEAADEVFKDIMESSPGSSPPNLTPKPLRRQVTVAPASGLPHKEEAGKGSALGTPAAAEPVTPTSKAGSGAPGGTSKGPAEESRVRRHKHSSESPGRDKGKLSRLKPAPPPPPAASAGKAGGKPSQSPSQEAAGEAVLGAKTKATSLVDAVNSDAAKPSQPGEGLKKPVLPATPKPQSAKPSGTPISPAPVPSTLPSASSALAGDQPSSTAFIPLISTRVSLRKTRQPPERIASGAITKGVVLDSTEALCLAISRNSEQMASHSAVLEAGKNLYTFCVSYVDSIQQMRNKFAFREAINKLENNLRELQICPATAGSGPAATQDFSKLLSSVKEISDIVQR
T2 sequence (P00519 whole entry, looked up): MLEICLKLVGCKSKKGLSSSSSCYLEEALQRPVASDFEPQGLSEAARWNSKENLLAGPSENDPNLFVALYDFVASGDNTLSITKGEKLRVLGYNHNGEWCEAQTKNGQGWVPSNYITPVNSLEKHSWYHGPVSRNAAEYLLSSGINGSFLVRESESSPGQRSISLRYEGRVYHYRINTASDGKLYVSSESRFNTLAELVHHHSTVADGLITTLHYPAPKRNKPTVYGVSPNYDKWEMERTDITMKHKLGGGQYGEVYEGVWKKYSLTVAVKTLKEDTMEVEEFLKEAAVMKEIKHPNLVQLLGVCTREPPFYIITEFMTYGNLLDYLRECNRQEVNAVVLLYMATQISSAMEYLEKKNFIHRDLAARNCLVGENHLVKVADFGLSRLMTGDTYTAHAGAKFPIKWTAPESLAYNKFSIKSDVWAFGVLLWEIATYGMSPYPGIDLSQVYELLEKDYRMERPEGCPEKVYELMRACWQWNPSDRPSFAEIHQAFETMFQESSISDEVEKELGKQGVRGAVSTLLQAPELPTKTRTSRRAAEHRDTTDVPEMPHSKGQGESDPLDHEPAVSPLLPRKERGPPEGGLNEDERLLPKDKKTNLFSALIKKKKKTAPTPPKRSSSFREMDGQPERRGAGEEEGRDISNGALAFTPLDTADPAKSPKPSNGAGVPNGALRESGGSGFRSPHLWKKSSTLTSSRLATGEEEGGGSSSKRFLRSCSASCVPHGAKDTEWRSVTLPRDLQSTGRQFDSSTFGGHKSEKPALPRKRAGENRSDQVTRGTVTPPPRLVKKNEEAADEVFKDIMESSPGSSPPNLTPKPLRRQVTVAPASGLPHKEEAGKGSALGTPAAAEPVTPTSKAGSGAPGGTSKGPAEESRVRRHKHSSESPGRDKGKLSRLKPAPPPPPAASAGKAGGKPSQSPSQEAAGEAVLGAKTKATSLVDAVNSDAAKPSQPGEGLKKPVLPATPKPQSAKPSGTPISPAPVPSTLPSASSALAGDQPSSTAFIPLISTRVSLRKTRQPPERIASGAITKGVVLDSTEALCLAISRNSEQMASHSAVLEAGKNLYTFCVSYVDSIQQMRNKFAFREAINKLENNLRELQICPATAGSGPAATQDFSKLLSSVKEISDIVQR

| Compound | IC50 (K562 cells [3]) [nM] | Dmax at 0.005 µM (BCR–ABL [5]) [%] | time at which BCR–ABL reduction appears (BCR–ABL [4]) [h] | DC50 (BCR–ABL [4]; 48 h) | further results |
| --- | --- | --- | --- | --- | --- |
| Cc1nc(Nc2ncc(C(=O)Nc3c(C)cccc3Cl)s2)cc(N2CCN(CCO)CC2)n1 [Dasa, dasatinib, reference compound] |  |  |  |  | cell growth after drug removal (K562 cells [1]): gradually resumed; also recorded: rapid recovery; tumor growth (K562 xenograft): potent tumor growth inhibition; body weight / tolerability ([2]; mouse, in vivo, ip, 10 mg/kg): without significant loss of body weight; pSTAT5 / STAT5 phosphorylation after drug withdrawal (pSTAT5): gradually recovered |
| Cc1nc(Nc2ncc(C(=O)Nc3c(C)cccc3Cl)s2)cc(N2CCN(CCOC(=O)CCOCCOCCNC(=O)C(N)CCCNC(=N)N)CC2)n1 (stereo not shown) [Arg-PEG2-Dasa] | 0.53 |  |  |  |  |
| CC(C)C[C@@H](C=O)NC(=O)[C@H](CC(C)C)NC(=O)[C@H](CC(C)C)NC(=O)OCc1ccccc1 [MG132, reference compound] (Cbz-Leu-Leu-Leu-aldehyde) |  |  |  |  | effect on Arg-PEG1-Dasa–mediated degradation of BCR–ABL (BCR–ABL [4]; MG132 10 μM or chloroquine 25 μM with Arg-PEG1-Dasa 1 nM, 48 h): blocked |
| Cc1nc(Nc2ncc(C(=O)Nc3c(C)cccc3Cl)s2)cc(N2CCN(CCOC(=O)CCOCCNC(=O)C(N)CCCNC(=N)N)CC2)n1 (stereo not shown) [Arg-PEG1-Dasa] | 0.359 | 98.8 | 48 | 0.85 nM and 0.849 nM | BCR–ABL protein level in tumor (BCR–ABL [6]): significantly downregulated; cell growth after drug removal (K562 cells [1]): sustained growth inhibition; tumor growth (K562 xenograft; 10 mg/kg): dramatically impeded tumor growth; also recorded: does not exhibit better antitumor effects than Dasa; also recorded: robust antitumor effects; ubiquitination of immunoprecipitated BCR–ABL [7]: displayed the ubiquitination of immunoprecipitated BCR–ABL; body weight / tolerability ([2]; nude mice, 10 mg/kg i.p. every other day, 10 doses): did not significantly alter the body weight; also recorded: without overt drug toxicity; pSTAT5 / STAT5 phosphorylation after drug withdrawal (pSTAT5): remained markedly diminished; BCR–ABL protein level after drug withdrawal (BCR–ABL [4]; 1 nM 2 days, washout, compound-free medium): remained markedly diminished; BCR–ABL degradation kinetics (cycloheximide chase) (BCR–ABL [4]; 2.5 nM for 32 h, then cycloheximide): quickly reduced; DC50 (BCR–ABL [4]; 48 h, listed as Arg-based PROTAC): ~0.85 nM; BCR–ABL degradation in combination with Lys-, Leu-, or Phe-PEG1-Dasa (BCR–ABL [4]; Arg-PEG1-Dasa mixed with varying doses of second PROTAC): not further enhanced |

The next lines start with results.

| IC50 (K562 cells [3]) [nM] | Dmax at 0.005 µM (BCR–ABL [5]) [%] | time at which BCR–ABL reduction appears (BCR–ABL [4]) [h] | DC50 (BCR–ABL [4]; 48 h) | Compound | further results |
| --- | --- | --- | --- | --- | --- |
| 0.294 | 81 | 36 | 1.56 nM | Cc1nc(Nc2ncc(C(=O)Nc3c(C)cccc3Cl)s2)cc(N2CCN(CCOC(=O)CCOCCNC(=O)[C@@H](N)Cc3ccccc3)CC2)n1 [Phe-PEG1-Dasa] | DC50 (BCR–ABL [4]; 48 h, listed as Phe-based PROTAC): 1.56 nM |
| 0.22 | 91.2 | 12 | 0.479 nM | Cc1nc(Nc2ncc(C(=O)Nc3c(C)cccc3Cl)s2)cc(N2CCN(CCOC(=O)CCOCCNC(=O)[C@@H](N)CC(C)C)CC2)n1 [Leu-PEG1-Dasa] | DC50 (BCR–ABL [4]; 48 h, listed as Leu-based PROTAC): 0.48 nM |
| 0.48 |  |  |  | Cc1nc(Nc2ncc(C(=O)Nc3c(C)cccc3Cl)s2)cc(N2CCN(CCOC(=O)CCOCCOCCOCCNC(=O)C(N)CCCNC(=N)N)CC2)n1 (stereo not shown) [Arg-PEG3-Dasa] |  |
| 0.524 |  |  |  | Cc1nc(Nc2ncc(C(=O)Nc3c(C)cccc3Cl)s2)cc(N2CCN(CCOC(=O)CCOCCOCCOCCOCCNC(=O)C(N)CCCNC(=N)N)CC2)n1 (stereo not shown) [Arg-PEG4-Dasa] |  |
| 0.457 | 99.1 | 48 | 0.981 nM | Cc1nc(Nc2ncc(C(=O)Nc3c(C)cccc3Cl)s2)cc(N2CCN(CCOC(=O)CCOCCNC(=O)[C@@H](N)CCCCN)CC2)n1 [Lys-PEG1-Dasa] | DC50 (BCR–ABL [4]; 48 h, listed as Lys-based PROTAC): 0.98 nM |

From publication PMC10388202, “Single amino acid–based PROTACs trigger degradation of the oncogenic kinase BCR–ABL in chronic myeloid leukemia (CML)” (The Journal of Biological Chemistry, 2023)
